{
  "source": "patent US20230405132A1",
  "about": "“ANTITUMOR PHARMACEUTICAL COMPOSITION AND USE THEREOF” (JENKEM TECHNOLOGY CO., LTD. (TIANJIN), priority 2020, published 2023)",
  "key": {"SK-N-SH cells": {"system": "SK-N-SH cells", "assay": "SK-N-SH subcutaneous tumor model in mice: tumor volume and tumor growth inhibition", "format": "in vivo, mouse", "conditions": "for tumor inhibition rate: SK-N-SH subcutaneous tumor model; for Tumor volume, mean ± standard error: TMZ 20 mg/kg PO, irinotecan hydrochloride or PEG-irinotecan 30 mg/kg IV", "protocol": "SK-N-SH cells were cultured in an EMEM medium containing 10% heat-inactivated fetal bovine serum, 100 μg/mL penicillin, and 100 μg/mL streptomycin (incubator condition: 37° C., 5% CO 2). The cells were subcultured twice a week. The cells in the exponential phase were collected, and counted grafting.\n2.2 Tumor grafting and grouping 100 μL of a mixture of EMEM and 50% matrigel containing 5×10^6 SK-N-SH cells was grafted subcutaneously at the right abdomen of a mouse, and the tumor growth was observed. 80 animals were randomized according to tumor volume (103 mm 3) by using the grouping randomization method in Excel. […] Each group had 10 tumor-bearing mice.\nTumor volume was measured twice a week using a vernier caliper.\n(§1) The body weight and tumor volume were compared by using two-way ANOVA analysis. All data were analyzed using GraphPad Prism 5. p<0.05 indicates statistical significance."}, "[1]": {"assay": "Body weight of tumor-bearing mice during treatment", "format": "in vivo, mouse", "conditions": "TMZ 20 mg/kg PO, irinotecan hydrochloride or PEG-irinotecan 30 mg/kg IV", "protocol": "All procedures related to animal handling, care, and treatment in this study were performed according to the assessment of the Institutional Animal Care and Use Committee (IACUC) approved by Shanghai BioDuro Co., Ltd. (the CRO) and followed guidelines of the Association for Assessment and Accreditation of Laboratory Animal Care (AAALAC, accreditation number: 001516). In routine monitoring, the animals were examined that whether any adverse effects of tumor growth and/or treatment on normal behavior were present, such as motility, food and water consumption (by observation only), and body weight gain/loss (the body weight was measured twice a week during the pre-administration phase and daily during the administration phase), eye/hair matting and any other abnormalities.\nas §1"}},
  "note": "Counter-ions that a name gives are not always drawn.",
  "data": [
    {"smiles": "CCc1c2c(nc3ccc(OC(=O)N4CCC(N5CCCCC5)CC4)cc13)-c1cc3c(c(=O)n1C2)COC(=O)[C@]3(O)CC", "note": "[Irinotecan hydrochloride]", "values": [
      {"measurement": "1 − T/C (tumor inhibition rate TGI)", "setting": "SK-N-SH cells; D 34", "result": 30.99, "unit": "%"},
      {"measurement": "T/C (relative tumor proliferation rate)", "setting": "SK-N-SH cells; D 34", "result": 69.01, "unit": "%"},
      {"measurement": "tumor inhibition rate", "setting": "SK-N-SH cells", "result": 31.0, "unit": "%"},
      {"measurement": "Animal body weight, mean ± standard error", "setting": "[1]; day 24", "result": "22 ± 0.4", "unit": "g"},
      {"measurement": "Animal body weight, mean ± standard error", "setting": "[1]; day 27", "result": "21.8 ± 0.5", "unit": "g"},
      {"measurement": "Animal body weight, mean ± standard error", "setting": "[1]; day 31", "result": "23 ± 0.5", "unit": "g"},
      {"measurement": "Animal body weight, mean ± standard error", "setting": "[1]; day 34", "result": "24.3 ± 0.5", "unit": "g"},
      {"measurement": "Animal body weight, mean ± standard error", "setting": "[1]; day 38", "result": "23.2 ± 0.4 (n = 8) g"},
      {"measurement": "Animal body weight, mean ± standard error", "setting": "[1]; day 41", "result": "21 (n = 1) g"}
    ]},
    {"smiles": "Cn1nnc2c(C(N)=O)ncn2c1=O", "note": "[Temozolomide]", "values": [
      {"measurement": "1 − T/C (tumor inhibition rate TGI)", "setting": "SK-N-SH cells; D 34", "result": 25.04, "unit": "%"},
      {"measurement": "tumor inhibition rate", "setting": "SK-N-SH cells", "result": 25.0, "unit": "%"},
      {"measurement": "TV (b: Tumor volume on day 34)", "setting": "SK-N-SH cells; Table 5, day 34", "result": "1827.5 ± 262.2", "unit": "mm^3"},
      {"measurement": "Tumor volume, mean ± standard error", "setting": "SK-N-SH cells; day 27", "result": "462.9 ± 67.1", "unit": "mm^3"},
      {"measurement": "Tumor volume, mean ± standard error", "setting": "SK-N-SH cells; day 31", "result": "1071 ± 144.9", "unit": "mm^3"},
      {"measurement": "Tumor volume, mean ± standard error", "setting": "SK-N-SH cells; day 34", "result": "1827.5 ± 262.2 (n = 9) mm^3"},
      {"measurement": "Tumor volume, mean ± standard error", "setting": "SK-N-SH cells; day 38", "result": "2179.6 ± 209.6 (n = 5) mm^3"},
      {"measurement": "Tumor volume, mean ± standard error", "setting": "SK-N-SH cells; day 41", "result": "3004.1 ± 100.8 (n = 2) mm^3"},
      {"measurement": "Animal body weight, mean ± standard error", "setting": "[1]; day 24", "result": "21.7 ± 0.4", "unit": "g"},
      {"measurement": "Animal body weight, mean ± standard error", "setting": "[1]; day 27", "result": "21.5 ± 0.5", "unit": "g"},
      {"measurement": "Animal body weight, mean ± standard error", "setting": "[1]; day 31", "result": "22 ± 0.6", "unit": "g"},
      {"measurement": "Animal body weight, mean ± standard error", "setting": "[1]; day 34", "result": "23.7 ± 0.7 (n = 9) g"},
      {"measurement": "Animal body weight, mean ± standard error", "setting": "[1]; day 38", "result": "22.5 ± 0.5 (n = 5) g"},
      {"measurement": "Animal body weight, mean ± standard error", "setting": "[1]; day 41", "result": "23.3 ± 1.1 (n = 2) g"}
    ]}
  ]
}
